# Key:
# B16 [1] = assay: Induction of melanin synthesis in mouse B16 cells assessed as increase in melanin content at 50 uM after 48 hrs measured by spectrophotometric method relative to control; assay type: functional
# Candida albicans = assay: Antifungal activity against Candida albicans ATCC 10231 assessed as diameter of inhibition zone after 24 hrs by agar well diffusion method; assay type: functional
# Escherichia coli = assay: Antibacterial activity against Escherichia coli ATCC 11229 assessed as diameter of inhibition zone after 24 hrs by agar well diffusion method; assay type: functional
# Staphylococcus aureus = assay: Antibacterial activity against Staphylococcus aureus ATCC 6538 assessed as diameter of inhibition zone after 24 hrs by agar well diffusion method; assay type: functional
# B16 [2] = assay: Cytotoxicity against mouse B16 cells at 50 uM after 24 hrs by CCK8 assay; assay type: cell-based; conditions: b16, 24 h
# B16 [3] = assay: Potency index, ratio of compound activity to 8-MOP activity for induction of melanin synthesis in mouse B16 cells; assay type: functional
SMILES,Activity (B16 [1]),diameter of the inhibition zone (DIZ) (Candida albicans),diameter of the inhibition zone (DIZ) (Escherichia coli),diameter of the inhibition zone (DIZ) (Staphylococcus aureus),Activity (B16 [2]),Ratio (B16 [3])
COc1ccc(-c2cc(COc3ccc4c(C)cc(=O)oc4c3)on2)cc1,129.45%,<=7 mm,<=7 mm,<=7 mm,–,–
Cc1cc(=O)oc2cc(OCc3cc(-c4ccccc4)no3)ccc12,153.35%,<=7 mm,<=7 mm,<=7 mm,–,–
Cc1cc(=O)oc2cc(OCc3cc(-c4ccc5c(c4)OCCO5)no3)ccc12,178.33%,<=7 mm,<=7 mm,<=7 mm,–,–
Cc1cc(=O)oc2cc(OCc3cc(-c4cccc(F)c4)no3)ccc12,121.15%,7 mm,<=7 mm,<=7 mm,–,–
Cc1cc(=O)oc2cc(OCc3cc(-c4cccc(Cl)c4)no3)ccc12,242.18%,7 mm,<=7 mm,<=7 mm,Toxic,1.6
Cc1cc(=O)oc2cc(OCc3cc(-c4ccc(Cl)c(F)c4)no3)ccc12,182.27%,7 mm,<=7 mm,<=7 mm,–,–
Cc1cc(=O)oc2cc(OCc3cc(-c4cc(Cl)cc(Cl)c4)no3)ccc12,389.95%,10 mm,<=7 mm,<=7 mm,Toxic,2.6
Cc1cc(=O)oc2cc(OCc3cc(-c4cc(I)ccc4F)no3)ccc12,169.71%,<=7 mm,<=7 mm,<=7 mm,–,–
Cc1cc(=O)oc2cc(OCc3cc(-c4ccc(F)cc4)no3)ccc12,115.44%,<=7 mm,<=7 mm,<=7 mm,–,–
Cc1cc(=O)oc2cc(OCc3cc(-c4ccc(F)c(F)c4)no3)ccc12,156.64%,10 mm,<=7 mm,<=7 mm,–,–
COc1ccccc1-c1cc(COc2ccc3c(C)cc(=O)oc3c2)on1,145.05%,<=7 mm,<=7 mm,<=7 mm,–,–
Cc1cc(=O)oc2cc(OCc3cc(-c4ccc(Cl)cc4)no3)ccc12,191.96%,<=7 mm,<=7 mm,<=7 mm,–,–
Cc1cc(=O)oc2cc(OCc3cc(-c4cccc(OC(F)(F)F)c4)no3)ccc12,203.27%,<=7 mm,<=7 mm,<=7 mm,Toxic,–
Cc1cc(=O)oc2cc(OCc3cc(-c4ccc(Cl)c(Cl)c4)no3)ccc12,204.12%,10 mm,<=7 mm,<=7 mm,Toxic,–
Cc1cc(=O)oc2cc(OCc3cc(-c4cc(F)cc(F)c4)no3)ccc12,176.55%,10 mm,<=7 mm,<=7 mm,–,–
C[C@@H]1[C@H](O)[C@@H](C)/C=C/C=C/C=C/C=C/C=C/C=C/C=C/[C@H](O[C@@H]2O[C@H](C)[C@@H](O)[C@H](N)[C@@H]2O)C[C@@H]2O[C@](O)(C[C@@H](O)C[C@@H](O)[C@H](O)CC[C@@H](O)C[C@@H](O)CC(=O)O[C@H]1C)C[C@H](O)[C@H]2C(=O)O [AMPHOTERICIN B],–,11 mm,<=7 mm,<=7 mm,–,–
CC1(C)S[C@@H]2[C@H](NC(=O)[C@H](N)c3ccccc3)C(=O)N2[C@H]1C(=O)O [AMPICILLIN],–,<=7 mm,–,19 mm,–,–
Cc1cc(=O)oc2cc(O)ccc12 [HYMECROMONE],112.2%,7 mm,<=7 mm,<=7 mm,–,–
COc1c2occc2cc2ccc(=O)oc12 [METHOXSALEN],149.39%,<=7 mm,<=7 mm,<=7 mm,–,–
